Test system: HeLa
Experiment: Antitumor activity against Homo sapiens (human) HeLa cells assessed as inhibition of cell proliferation after 48 hr by SRB assay
Format: functional, cell-based

`COc1ccc(-c2nc(Nc3ccc(S(N)(=O)=O)cc3)n3c(=O)[nH]nc3c2C#N)cc1OC` and `COc1ccc(-c2nc(Nc3ccc(S(N)(=O)=O)cc3)n3c(C)nnc3c2C#N)cc1OC` are within 1.5-fold of each other in IC50: 47 nM for the first, 48 nM for the second.

`COc1ccc(C2=C(C#N)C3=NCC(=O)N3C(Nc3ccc(S(N)(=O)=O)cc3)=N2)cc1OC` and `COc1ccc(-c2nc(Nc3ccc(S(N)(=O)=O)cc3)nc(N3N=C(C)CC3=O)c2C#N)cc1OC` are within 1.5-fold of each other in IC50: 42 nM for the first, 46 nM for the second.

`COc1ccc(-c2nc(Nc3ccc(S(N)(=O)=O)cc3)nc(-n3nc(C)cc3C)c2C#N)cc1OC` and `CCOC1=NN(c2nc(Nc3ccc(S(N)(=O)=O)cc3)nc(-c3ccc(OC)c(OC)c3)c2C#N)C(=O)C1` are within 1.5-fold of each other in IC50: 41 nM for the first, 42 nM for the second.

Going from `COc1ccc(-c2nc(Nc3ccc(S(N)(=O)=O)cc3)n3nnnc3c2C#N)cc1OC` to `COc1cccc2c1C(=O)c1c(O)c3c(c(O)c1C2=O)C[C@@](O)(C(=O)CO)C[C@@H]3O[C@H]1C[C@H](N)[C@H](O)[C@H](C)O1` [DOXORUBICIN], the IC50 falls from 39 nM to 16 nM (2.4-fold).

Reference: ChEMBL document CHEMBL3045263, “Novel 2-thiopyrimidine derivatives as CDK2 inhibitors: molecular modeling, synthesis, and anti-tumor activity evaluation” (Med Chem Res, 2013)
